A word on the DC50: it is the concentration giving 50% degradation.

15 compounds from US20260184691A1, “INHIBITORS AND DEGRADERS OF PIP4K PROTEIN” (Larkspur Biosciences, Inc., priority 2022, published 2026) can be followed below.

The experiment addresses T1, endogenous PIP4K2C C-terminally tagged with HiBiT peptide in MOLT-4 cells (Homo sapiens, UniProt Q8TBX8).
T1 construct: to C-terminally tag endogenous PIP4K2C with HiBiT peptide; host or cells: MOLT-4 (CRISPR-Cas9 knock-in clone)
T1 sequence (Q8TBX8 1-421): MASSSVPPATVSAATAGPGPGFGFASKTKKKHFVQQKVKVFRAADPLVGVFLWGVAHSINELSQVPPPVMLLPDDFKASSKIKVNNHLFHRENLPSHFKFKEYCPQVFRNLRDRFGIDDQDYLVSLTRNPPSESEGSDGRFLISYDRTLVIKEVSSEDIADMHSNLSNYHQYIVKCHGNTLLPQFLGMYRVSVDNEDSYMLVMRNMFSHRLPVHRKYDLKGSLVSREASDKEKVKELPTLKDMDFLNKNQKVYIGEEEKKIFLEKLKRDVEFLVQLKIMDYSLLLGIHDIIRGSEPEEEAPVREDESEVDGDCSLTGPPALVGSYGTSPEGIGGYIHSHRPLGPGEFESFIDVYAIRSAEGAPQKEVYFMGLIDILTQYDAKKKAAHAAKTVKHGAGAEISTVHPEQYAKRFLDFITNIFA
Put plainly: HiBiT PIP4K2C degradation assay in MOLT-4 cells. The following applies: 24 hours, 10-point dose response, top concentration 10 micromolar, read-out: HiBIT-degradation MOLT4 PIP4k2C 24 hours DC50. It counts as cell-based. The method, then: Following clonal selection, genotype was confirmed by Sanger sequencing. […] Nano-Glo® HiBiT Lytic Assay System was purchased from Promega (Madison, WI, Catalog number N3030). Cell culture flasks and 384-well microplates were purchased from Corning (Glendale, AZ).
To study PIP4K2C degradation, 384-well plates were plated with a 10-point dose response curve, 3-fold dilution, in duplicate with a top starting concentration of 10 micromolar. Subsequently 22,500 cells were added to each well and incubated at 37C in 5% CO2 for 24 hours. At the end of the incubation time, cells were treated with the Nano-Glo® HiBiT Lytic Detection System following the manufacturer's instructions. Luminescence was measured with a PHERAstar FSX plate reader (BMG Labtech, Cary, NC). The Levenberg-Marquardt algorithm was used to fit a Hill equation to dose-response data to calculate DC50 values (see Table 6).
(In general: The HiBiT peptide binds its large partner to form an active luciferase.)

SMILES strings stand for the structures.

Regarding `O=C1CCC(N2Cc3cc(OCCCCCCCCCN4CCC5(CC4)CCN(c4cncc(Nc6ncc(Cl)c(-c7cccc(-c8ccccc8)c7)n6)c4)C5=O)ccc3C2=O)C(=O)N1` (stereo not drawn) [Compound 53, 3-(5-((9-(2-(5-((4-([1,1′-biphenyl]-3-yl)-5-chloropyrimidin-2-yl)amino)pyridin-3-yl)-1-oxo-2,8-diazaspiro[4.5]decan-8-yl)nonyl)oxy)-1-oxoisoindolin-2-yl)piperidine-2,6-dione], the 50% degradation concentration (DC50) is below 500 nM. With `O=C1CCC(N2Cc3cc(OCCCCCCCN4CCC5(CC4)CCN(c4cncc(Nc6ncc(Cl)c(-c7cccc(-c8ccccc8)c7)n6)c4)C5=O)ccc3C2=O)C(=O)N1` (stereo not drawn) [Compound 54, 3-(5-((7-(2-(5-((4-([1,1′-biphenyl]-3-yl)-5-chloropyrimidin-2-yl)amino)pyridin-3-yl)-1-oxo-2,8-diazaspiro[4.5]decan-8-yl)heptyl)oxy)-1-oxoisoindolin-2-yl)piperidine-2,6-dione] the figure was below 500 nM; with `O=C(COc1ccc(NC2CCC(=O)NC2=O)cc1)NCCCCCCCCCC(=O)Nc1cncc(Nc2ncc(Cl)c(-c3cccc(-c4ccccc4)c3)n2)c1` (stereo not drawn) [Compound 55, N-(5-((4-([1,1′-biphenyl]-3-yl)-5-chloropyrimidin-2-yl)amino)pyridin-3-yl)-10-(2-(4-((2,6-dioxopiperidin-3-yl)amino)phenoxy)acetamido)decanamide], 500 to 1000 nM. On to `O=C1CCC(N2Cc3cc(OCCCCCCCCN4CCC5(CC4)CCN(c4cncc(Nc6ncc(Cl)c(-c7cccc(-c8ccccc8)c7)n6)c4)C5=O)ccc3C2=O)C(=O)N1` (stereo not drawn) [Compound 56, 3-(5-((8-(2-(5-((4-([1,1′-biphenyl]-3-yl)-5-chloropyrimidin-2-yl)amino)pyridin-3-yl)-1-oxo-2,8-diazaspiro[4.5]decan-8-yl)octyl)oxy)-1-oxoisoindolin-2-yl)piperidine-2,6-dione], for which the DC50 is below 500 nM. With `O=C1CCC(N2C(=O)c3cccc(OCCCN4CCN(CCCCCCC(=O)Nc5cncc(Nc6ncc(Cl)c(-c7cccc(-c8ccccc8)c7)n6)c5)CC4)c3C2=O)C(=O)N1` (stereo not drawn) [Compound 58, N-(5-((4-([1,1′-biphenyl]-3-yl)-5-chloropyrimidin-2-yl)amino)pyridin-3-yl)-7-(4-(3-((2-(2,6-dioxopiperidin-3-yl)-1,3-dioxoisoindolin-4-yl)oxy)propyl)piperazin-1-yl)heptanamide] the figure was below 500 nM. With `O=C(COc1ccc2c(c1)C(=O)N(C1CCC(=O)NC1=O)C2=O)NCCCCCCCCCC(=O)Nc1cncc(Nc2ncc(Cl)c(-c3cccc(-c4ccccc4)c3)n2)c1` (stereo not drawn) [Compound 59, N-(5-((4-([1,1′-biphenyl]-3-yl)-5-chloropyrimidin-2-yl)amino)pyridin-3-yl)-10-(2-((2-(2,6-dioxopiperidin-3-yl)-1,3-dioxoisoindolin-5-yl)oxy)acetamido)decanamide] the figure was 500 to 1000 nM; with `O=C(COc1ccc2c(c1)CN(C1CCC(=O)NC1=O)C2=O)NCCCCCCCCCC(=O)Nc1cncc(Nc2ncc(Cl)c(-c3cccc(-c4ccccc4)c3)n2)c1` (stereo not drawn) [Compound 60, N-(5-((4-([1,1′-biphenyl]-3-yl)-5-chloropyrimidin-2-yl)amino)pyridin-3-yl)-10-(2-((2-(2,6-dioxopiperidin-3-yl)-1-oxoisoindolin-5-yl)oxy)acetamido)decanamide], below 500 nM. For the compound `O=C1CCC(N2Cc3cc(OCCCCCCCCCC(=O)N4CCC5(CC4)CCN(c4cncc(Nc6ncc(Cl)c(-c7cccc(-c8ccccc8)c7)n6)c4)C5=O)ccc3C2=O)C(=O)N1` (stereo not drawn) [Compound 61, 3-(5-((10-(2-(5-((4-([1,1′-biphenyl]-3-yl)-5-chloropyrimidin-2-yl)amino)pyridin-3-yl)-1-oxo-2,8-diazaspiro[4.5]decan-8-yl)-10-oxodecyl)oxy)-1-oxoisoindolin-2-yl)piperidine-2,6-dione], the half-maximal degradation concentration (DC50) is below 500 nM.

For the compound `O=C1CCC(N2Cc3cc(OCCCCCCCCC(=O)N4CCC5(CC4)CCN(c4cncc(Nc6ncc(Cl)c(-c7cccc(-c8ccccc8)c7)n6)c4)C5=O)ccc3C2=O)C(=O)N1` (stereo not drawn) [Compound 62, 3-(5-((9-(2-(5-((4-([1,1′-biphenyl]-3-yl)-5-chloropyrimidin-2-yl)amino)pyridin-3-yl)-1-oxo-2,8-diazaspiro[4.5]decan-8-yl)-9-oxononyl)oxy)-1-oxoisoindolin-2-yl)piperidine-2,6-dione], the 50% degradation concentration (DC50) is below 500 nM. Then `O=C1CCC(N2Cc3cc(OCCCCCCCC(=O)N4CCC5(CC4)CCN(c4cncc(Nc6ncc(Cl)c(-c7cccc(-c8ccccc8)c7)n6)c4)C5=O)ccc3C2=O)C(=O)N1` (stereo not drawn) [Compound 63, 3-(5-((8-(2-(5-((4-([1,1′-biphenyl]-3-yl)-5-chloropyrimidin-2-yl)amino)pyridin-3-yl)-1-oxo-2,8-diazaspiro[4.5]decan-8-yl)-8-oxooctyl)oxy)-1-oxoisoindolin-2-yl)piperidine-2,6-dione], with below 500 nM. With `O=C1CCC(N2Cc3cc(OCCCCCCC(=O)N4CCC5(CC4)CCN(c4cncc(Nc6ncc(Cl)c(-c7cccc(-c8ccccc8)c7)n6)c4)C5=O)ccc3C2=O)C(=O)N1` (stereo not drawn) [Compound 64, 3-(5-((7-(2-(5-((4-([1,1′-biphenyl]-3-yl)-5-chloropyrimidin-2-yl)amino)pyridin-3-yl)-1-oxo-2,8-diazaspiro[4.5]decan-8-yl)-7-oxoheptyl)oxy)-1-oxoisoindolin-2-yl)piperidine-2,6-dione] the figure was below 500 nM; with `O=C1CCC(N2C(=O)c3cccc(OCCCN4CCN(CCCCC(=O)Nc5cncc(Nc6ncc(Cl)c(-c7cccc(-c8ccccc8)c7)n6)c5)CC4)c3C2=O)C(=O)N1` (stereo not drawn) [Compound 65, N-(5-((4-([1,1′-biphenyl]-3-yl)-5-chloropyrimidin-2-yl)amino)pyridin-3-yl)-5-(4-(3-((2-(2,6-dioxopiperidin-3-yl)-1,3-dioxoisoindolin-4-yl)oxy)propyl)piperazin-1-yl)pentanamide], below 500 nM. Consider `O=C(COc1cccc2c1CN(C1CCC(=O)NC1=O)C2=O)NCCCCCCCCCC(=O)Nc1cncc(Nc2ncc(Cl)c(-c3cccc(-c4ccccc4)c3)n2)c1` (stereo not drawn) [Compound 66, N-(5-((4-([1,1′-biphenyl]-3-yl)-5-chloropyrimidin-2-yl)amino)pyridin-3-yl)-10-(2-((2-(2,6-dioxopiperidin-3-yl)-1-oxoisoindolin-4-yl)oxy)acetamido)decanamide], for which the DC50 was below 500 nM.

For the compound `O=C1CCC(N2C(=O)c3cccc(OCCCN4CCN(CCCCCCCC(=O)Nc5cncc(Nc6ncc(Cl)c(-c7cccc(-c8ccccc8)c7)n6)c5)CC4)c3C2=O)C(=O)N1` (stereo not drawn) [Compound 67, N-(5-((4-([1,1′-biphenyl]-3-yl)-5-chloropyrimidin-2-yl)amino)pyridin-3-yl)-8-(4-(3-((2-(2,6-dioxopiperidin-3-yl)-1,3-dioxoisoindolin-4-yl)oxy)propyl)piperazin-1-yl)octanamide], the half-maximal degradation concentration (DC50) was below 500 nM. Then `O=C1CCC(N2C(=O)c3cccc(OCCCN4CCN(CCCCCC(=O)Nc5cncc(Nc6ncc(Cl)c(-c7cccc(-c8ccccc8)c7)n6)c5)CC4)c3C2=O)C(=O)N1` (stereo not drawn) [Compound 68, N-(5-((4-([1,1′-biphenyl]-3-yl)-5-chloropyrimidin-2-yl)amino)pyridin-3-yl)-6-(4-(3-((2-(2,6-dioxopiperidin-3-yl)-1,3-dioxoisoindolin-4-yl)oxy)propyl)piperazin-1-yl)hexanamide], with below 500 nM.
